Earlier results in patent US20110009373A1, “COMPOSITION COMPRISING A COMBINATION OF AN AROMATASE INHIBITOR, A PROGESTIN AND AN OESTROGEN AND ITS USE FOR THE TREATMENT OF ENDOMETRIOSIS” (ASTRAZENECA AB, priority 2003, published 2011).

Tested on: endometriotic lesion
Settings: addition of oestrogen to letrozole; wild type mice and aromatase knockout mice

Q: For `N#Cc1ccc(C(c2ccc(C#N)cc2)n2cncn2)cc1` [letrozole], which Endometriotic lesion sizes is on record?
A: increases in the endometriotic lesion sizes
